Assay results reported in PubChem BioAssay (NCI).
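All cell lines were grown in 96-well plates and treated with compound for 48 hours. GI50: concentration for 50% inhibition of growth. TGI denotes the concentration required for complete inhibition of growth.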

Assays:
Assay in all cases: inhibition of tumour cell growth, NCI panel, 48 h
MDA-MB-435 = test system: MDA-MB-435
COLO 205 colon = test system: COLO 205 colon
UO-31 renal = test system: UO-31 renal
SN12C renal = test system: SN12C renal
HL-60(TB) leukemia = test system: HL-60(TB) leukemia
M14 melanoma = test system: M14 melanoma
OVCAR-3 ovarian = test system: OVCAR-3 ovarian
RPMI-8226 leukemia = test system: RPMI-8226 leukemia
MDA-MB-231 breast = test system: MDA-MB-231 breast
SF-268 CNS = test system: SF-268 CNS
OVCAR-8 ovarian = test system: OVCAR-8 ovarian
HS 578T breast = test system: HS 578T breast
NCI-H522 lung = test system: NCI-H522 lung
SNB-75 CNS = test system: SNB-75 CNS
SR leukemia = test system: SR leukemia
PC-3 prostate = test system: PC-3 prostate
SK-MEL-5 melanoma = test system: SK-MEL-5 melanoma
SK-MEL-28 melanoma = test system: SK-MEL-28 melanoma
NCI-H226 lung = test system: NCI-H226 lung
MDA-MB-468 breast = test system: MDA-MB-468 breast
HOP-92 NSCLC = test system: HOP-92 NSCLC
U251 CNS = test system: U251 CNS
SW-620 colon = test system: SW-620 colon
MALME-3M melanoma = test system: MALME-3M melanoma
T-47D breast = test system: T-47D breast
SNB-19 CNS = test system: SNB-19 CNS
NCI-H23 lung = test system: NCI-H23 lung
TK-10 renal = test system: TK-10 renal
HOP-62 NSCLC = test system: HOP-62 NSCLC
NCI/ADR-RES ovarian = test system: NCI/ADR-RES ovarian
IGROV1 ovarian = test system: IGROV1 ovarian
RXF 393 renal = test system: RXF 393 renal
K-562 leukemia = test system: K-562 leukemia
SK-MEL-2 melanoma = test system: SK-MEL-2 melanoma
UACC-62 melanoma = test system: UACC-62 melanoma
OVCAR-5 ovarian = test system: OVCAR-5 ovarian
SK-OV-3 ovarian = test system: SK-OV-3 ovarian
SF-295 CNS = test system: SF-295 CNS
A549 NSCLC = test system: A549 NSCLC
BT-549 breast = test system: BT-549 breast
DU-145 prostate = test system: DU-145 prostate
LOX IMVI melanoma = test system: LOX IMVI melanoma
HCT-116 colon = test system: HCT-116 colon
KM12 colon = test system: KM12 colon
786-0 renal = test system: 786-0 renal
EKVX NSCLC = test system: EKVX NSCLC
HCC-2998 colon = test system: HCC-2998 colon
CAKI-1 renal = test system: CAKI-1 renal
MCF7 breast = test system: MCF7 breast
OVCAR-4 ovarian = test system: OVCAR-4 ovarian
NCI-H460 lung = test system: NCI-H460 lung
HCT-15 colon = test system: HCT-15 colon
MOLT-4 leukemia = test system: MOLT-4 leukemia
HT29 colon = test system: HT29 colon
A498 renal = test system: A498 renal
ACHN renal = test system: ACHN renal
CCRF-CEM leukemia = test system: CCRF-CEM leukemia
SF-539 CNS = test system: SF-539 CNS

With `COc1ccc2cc([C@H](C)C(=O)NCc3ccccc3)ccc2c1` the GI50 (MDA-MB-435) was 1.71 µM, the TGI (MDA-MB-435) was 7.53 µM and the GI50 (COLO 205 colon) was 3.03 µM. The TGI (COLO 205 colon) was 14 µM, the GI50 (UO-31 renal) was 4.35 µM and the TGI (UO-31 renal) was 73.4 µM. It also gave a GI50 (SN12C renal) of 4.26 µM, a TGI (SN12C renal) greater than 100 µM and a GI50 (HL-60(TB) leukemia) of 2.25 µM. The TGI (HL-60(TB) leukemia) was 7.52 µM, the GI50 (M14 melanoma) was 3.61 µM and the TGI (M14 melanoma) was greater than 100 µM. The GI50 (OVCAR-3 ovarian) was 3.21 µM, the TGI (OVCAR-3 ovarian) was 22.9 µM and the GI50 (RPMI-8226 leukemia) was 5.09 µM. It also gave a TGI (RPMI-8226 leukemia) greater than 100 µM, a GI50 (MDA-MB-231 breast) of 4.72 µM and a TGI (MDA-MB-231 breast) greater than 100 µM. The GI50 (SF-268 CNS) was 6.44 µM, the TGI (SF-268 CNS) was greater than 100 µM and the GI50 (OVCAR-8 ovarian) was 5.29 µM. It also gave a TGI (OVCAR-8 ovarian) greater than 100 µM, a GI50 (HS 578T breast) of 3.11 µM and a TGI (HS 578T breast) of 51.7 µM. The GI50 (NCI-H522 lung) was 2.98 µM, the TGI (NCI-H522 lung) was greater than 100 µM and the GI50 (SNB-75 CNS) was 1.68 µM. It also gave a TGI (SNB-75 CNS) of 7.16 µM, a GI50 (SR leukemia) of 1.78 µM and a TGI (SR leukemia) greater than 100 µM. It also gave a GI50 (PC-3 prostate) of 4.44 µM, a TGI (PC-3 prostate) greater than 100 µM and a GI50 (SK-MEL-5 melanoma) of 3.17 µM. The TGI (SK-MEL-5 melanoma) was greater than 100 µM, the GI50 (SK-MEL-28 melanoma) was 7.12 µM and the TGI (SK-MEL-28 melanoma) was greater than 100 µM. The GI50 (NCI-H226 lung) was 7.83 µM, the TGI (NCI-H226 lung) was greater than 100 µM and the GI50 (MDA-MB-468 breast) was 1.98 µM. For the same compound, the TGI (MDA-MB-468 breast) was 5.52 µM, the GI50 (HOP-92 NSCLC) was 7.87 µM and the TGI (HOP-92 NSCLC) was 79.2 µM. The GI50 (U251 CNS) was 3.95 µM, the TGI (U251 CNS) was 73.9 µM and the GI50 (SW-620 colon) was 3.43 µM. The TGI (SW-620 colon) was greater than 100 µM, the GI50 (MALME-3M melanoma) was 3.88 µM and the TGI (MALME-3M melanoma) was greater than 100 µM. The GI50 (T-47D breast) was 4.75 µM, the TGI (T-47D breast) was greater than 100 µM and the GI50 (SNB-19 CNS) was 5.46 µM. The TGI (SNB-19 CNS) was 40.2 µM, the GI50 (NCI-H23 lung) was 5.48 µM and the TGI (NCI-H23 lung) was greater than 100 µM. The GI50 (TK-10 renal) was 13 µM, the TGI (TK-10 renal) was greater than 100 µM and the GI50 (HOP-62 NSCLC) was 4.02 µM. For the same compound, the TGI (HOP-62 NSCLC) was 76 µM, the GI50 (NCI/ADR-RES ovarian) was 3.11 µM and the TGI (NCI/ADR-RES ovarian) was 12.2 µM. For the same compound, the GI50 (IGROV1 ovarian) was 5.5 µM, the TGI (IGROV1 ovarian) was greater than 100 µM and the GI50 (RXF 393 renal) was 2.57 µM. The TGI (RXF 393 renal) was 9.23 µM, the GI50 (K-562 leukemia) was 2.19 µM and the TGI (K-562 leukemia) was greater than 100 µM. It also gave a GI50 (SK-MEL-2 melanoma) of 3.93 µM, a TGI (SK-MEL-2 melanoma) of 34.7 µM and a GI50 (UACC-62 melanoma) of 3.75 µM. For the same compound, the TGI (UACC-62 melanoma) was greater than 100 µM, the GI50 (OVCAR-5 ovarian) was 7.84 µM and the TGI (OVCAR-5 ovarian) was greater than 100 µM. For the same compound, the GI50 (SK-OV-3 ovarian) was 3.76 µM, the TGI (SK-OV-3 ovarian) was 76.7 µM and the GI50 (SF-295 CNS) was 3.23 µM. It also gave a TGI (SF-295 CNS) of 16 µM, a GI50 (A549 NSCLC) of 6.86 µM and a TGI (A549 NSCLC) greater than 100 µM. It also gave a GI50 (BT-549 breast) of 5.47 µM, a TGI (BT-549 breast) greater than 100 µM and a GI50 (DU-145 prostate) of 5.52 µM. It also gave a TGI (DU-145 prostate) greater than 100 µM, a GI50 (LOX IMVI melanoma) of 5.03 µM and a TGI (LOX IMVI melanoma) greater than 100 µM. The GI50 (HCT-116 colon) was 5.21 µM, the TGI (HCT-116 colon) was greater than 100 µM and the GI50 (KM12 colon) was 4.56 µM. It also gave a TGI (KM12 colon) greater than 100 µM, a GI50 (786-0 renal) of 7.94 µM and a TGI (786-0 renal) greater than 100 µM. For the same compound, the GI50 (EKVX NSCLC) was 3.82 µM, the TGI (EKVX NSCLC) was greater than 100 µM and the GI50 (HCC-2998 colon) was 6.89 µM. It also gave a TGI (HCC-2998 colon) greater than 100 µM, a GI50 (CAKI-1 renal) of 4.78 µM and a TGI (CAKI-1 renal) greater than 100 µM. The GI50 (MCF7 breast) was 3.39 µM, the TGI (MCF7 breast) was greater than 100 µM and the GI50 (OVCAR-4 ovarian) was 49.3 µM. The TGI (OVCAR-4 ovarian) was greater than 100 µM, the GI50 (NCI-H460 lung) was 3.83 µM and the TGI (NCI-H460 lung) was greater than 100 µM. The GI50 (HCT-15 colon) was 3.28 µM, the TGI (HCT-15 colon) was greater than 100 µM and the GI50 (MOLT-4 leukemia) was 4.19 µM. It also gave a TGI (MOLT-4 leukemia) greater than 100 µM, a GI50 (HT29 colon) of 3.08 µM and a TGI (HT29 colon) greater than 100 µM. The GI50 (A498 renal) was greater than 100 µM, the TGI (A498 renal) was greater than 100 µM and the GI50 (ACHN renal) was 5.93 µM. For the same compound, the TGI (ACHN renal) was greater than 100 µM, the GI50 (CCRF-CEM leukemia) was 3.9 µM and the TGI (CCRF-CEM leukemia) was greater than 100 µM. It also gave a GI50 (SF-539 CNS) of 3.08 µM and a TGI (SF-539 CNS) of 11.7 µM.
